Data: patent US20200078323A1, “METHOD OF TREATING OVARIAN CANCER USING ZETA-STAT” (University of South Florida, priority 2018, published 2020)
Entries after “also recorded” stand apart in the source; their conditions may differ.

Legend:
ES-2 cells = experiment: Proliferation of ES-2 cells treated with ζ-Stat (cellometer count, WST-1); format: cell-based; conditions: 24, 48 and 72 hours, control DMSO
Method: (§1) FIGS. 2A-2C. Proliferation curves for ES-2 cells treated with ζ-Stat. ES-2 cells were treated with ζ-Stat for 24, 48, and 72 hours. The control cells were treated with DMSO. (FIG. 2A) Treatments counted on a cellometer. (FIG. 2B) Standard curve for ES-2 cells in WST-1 reagent. (FIG. 2C) Treatments after 72 hours measured using WST-1 reagent.
(§2) Ovarian cancer is the most lethal gynecological cancer. […] The most common ovarian cancer diagnosis is epithelial ovarian carcinomas, which constitute for 85-90% of prognosis. Of epithelial ovarian carcinomas, clear cell ovarian carcinoma (CCOC) represents 5% of incidence. CCOC presents unique pathological features and has a high reoccurrence rate after treatment. An overexpression of atypical PKCs (PKC-ζ and PKC-ι/λ) has been observed in various malignant cell lines and is linked to pathways for cellular proliferation and invasion. Ovarian cell lines (TOV21G and ES-2) were treated with the atypical PKC-ζ inhibitor ζ-Stat (8-hydroxynaphthalene-1,3,6-trisulfonic acid) and assayed to determine the effects on proliferation and cellular invasion. […] Tumor growth in athymic female mice is decreased when treated with ζ-Stat and the mouse body weight is maintained. Thus, PKC-ζ is identified herein as a novel target in carcinogenesis and inhibition of this protein decreases the rate of proliferation.

RhoA = experiment: Protein and genomic expression of RhoA in TOV21G cells; format: cell-based; conditions: 72 hours
Method: (§3) FIGS. 4A-4B. Protein expression of PKC-ζ and RhoA of TOV21G and ES-2 cells when treated for 72 hours with DMSO and ζ-Stat and genomic expression of RhoA in TOV21G. (FIG. 4A) TOV21G and ES-2 protein expression after 72 hours of treatment. (FIG. 4B) TOV21G genomic expression of RhoA with ζ-Stat treatment after 72 hours of treatment.

[1] = Toxicity and body weight in xenograph mice (enzyme panel, body weight); format: in vivo
Method: (§4) FIGS. 5A-5C. In-vivo TOV21G xenographs treated with 1×DPBS (vehicle, N=6) and 20 mg/kg ζ-Stat (N=6) for 30 days. (FIG. 5A) Tumor growth (mm^3) for the control mice and the treatment mice. The graph at the bottom represents the average body weight of the mice throughout the treatment period. (FIG. 5B) Tumors extracted at the endpoint of the experiment. The graph below represents the size of tumors from the treatment group represented as the percentage of the control. (FIG. 5C) Enzyme panel tested after the endpoint of the experiment. The bars represent glucose, BUN, ALT, AST and ALKP levels.
(§5) Effects of ζ-Stat on athymic mice ovarian xenograph were tested. Twelve athymic female nude mice weighing between 20-25 g and more than 10 weeks of age were used. The mice were divided into two groups after TOV21G cells (CRL-11730, American Type Culture Collection) were implanted (A million cells/mouse flank in 0.2 ml of media). The first group was the control group (n=6), which received 100 μl of DPBS (21-031-CM, Corning Cellgro, VA). The second group (n=6) received 100 μl of 20 mg/kg of ζ-Stat dissolved in DPBS. The tumor volume was calculated using the formula: length×width×width×½. Three days after implantation of the cells, the tumors were treated as of day 0. The treatments were administered every other day subcutaneously intra-tumor and around the tumor site for […].

CCOC cells = experiment: Wound healing / cellular invasion of CCOC cells; format: cell-based
Excerpt: as §2

PKC-ζ = molecular target: T1, PKC-ζ (Homo sapiens, UniProt Q05513); experiment: Protein expression of PKC-ζ in TOV21G and ES-2 cells; format: cell-based; conditions: protein and genomic studies
T1 construct: Protein expression of PKC-ζ and RhoA of TOV21G and ES-2 cells when treated for 72 hours with DMSO and ζ-Stat; endogenous in cells; host or cells: TOV21G and ES-2 cells
T1 sequence (Q05513 1-592): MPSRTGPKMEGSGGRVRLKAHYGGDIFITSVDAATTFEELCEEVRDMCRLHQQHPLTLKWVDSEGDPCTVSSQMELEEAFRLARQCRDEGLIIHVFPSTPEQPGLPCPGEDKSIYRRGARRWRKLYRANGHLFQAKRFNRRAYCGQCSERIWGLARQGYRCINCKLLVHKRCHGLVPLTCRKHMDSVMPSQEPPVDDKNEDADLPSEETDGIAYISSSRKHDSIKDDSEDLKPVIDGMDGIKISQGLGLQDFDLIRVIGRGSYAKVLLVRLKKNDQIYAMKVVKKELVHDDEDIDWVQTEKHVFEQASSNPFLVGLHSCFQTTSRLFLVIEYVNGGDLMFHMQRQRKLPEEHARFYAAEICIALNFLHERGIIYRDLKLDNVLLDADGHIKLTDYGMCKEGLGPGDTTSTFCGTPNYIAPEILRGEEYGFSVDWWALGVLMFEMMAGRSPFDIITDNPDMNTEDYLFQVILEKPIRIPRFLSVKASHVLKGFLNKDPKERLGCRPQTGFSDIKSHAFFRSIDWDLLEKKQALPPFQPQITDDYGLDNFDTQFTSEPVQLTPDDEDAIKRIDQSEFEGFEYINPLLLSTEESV
Method: (§6) FIGS. 3A-3B. Protein expression of […] and […] of TOV21G and ES-2 cells when treated for 24, 48, and 72 hours with DMSO, ICA-1, and ζ-Stat. (FIG. 3A) TOV21G protein expression levels with treatments and quantified N=3. (FIG. 3B) ES-2 protein expression levels with treatments and quantified N=3.
as §3

PKC-ι = molecular target: T2, PKC-ι (Homo sapiens, UniProt P41743); experiment: Protein expression of PKC-ι in TOV21G and ES-2 cells; format: cell-based; conditions: protein and genomic studies
T2 construct: endogenous in cells; host or cells: TOV21G and ES-2 cells
T2 sequence (P41743 1-596): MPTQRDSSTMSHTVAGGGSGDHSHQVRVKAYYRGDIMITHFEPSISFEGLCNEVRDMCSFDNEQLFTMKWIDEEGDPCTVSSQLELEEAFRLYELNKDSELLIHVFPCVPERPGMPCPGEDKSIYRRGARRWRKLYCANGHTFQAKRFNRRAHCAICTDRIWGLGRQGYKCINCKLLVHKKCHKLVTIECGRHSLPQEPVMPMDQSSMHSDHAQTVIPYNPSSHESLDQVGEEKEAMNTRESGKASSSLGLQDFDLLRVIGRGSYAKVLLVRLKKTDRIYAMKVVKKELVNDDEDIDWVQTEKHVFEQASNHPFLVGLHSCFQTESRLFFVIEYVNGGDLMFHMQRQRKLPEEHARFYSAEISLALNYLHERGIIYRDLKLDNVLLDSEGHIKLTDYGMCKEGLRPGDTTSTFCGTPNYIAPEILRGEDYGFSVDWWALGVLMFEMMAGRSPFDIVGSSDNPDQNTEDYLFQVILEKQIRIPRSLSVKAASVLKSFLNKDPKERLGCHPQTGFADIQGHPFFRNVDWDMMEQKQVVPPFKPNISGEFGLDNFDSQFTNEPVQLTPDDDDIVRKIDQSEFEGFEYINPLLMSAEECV
Method: as §6

TOV21G xenographs = experiment: TOV21G xenograph tumor growth in athymic female nude mice; format: in vivo; conditions: 20 mg/kg, every other day, subcutaneously intra-tumor and around the tumor site
Method: as §4, §5

TOV21G cells = experiment: Proliferation of TOV21G cells treated with ζ-Stat (cellometer count, WST-1); format: cell-based; conditions: 24, 48 and 72 hours, control DMSO
Method: as §1, with “1A-1C.” for “2A-2C.”, “TOV21G” for “ES-2”, “1A)” for “2A)”, “1B)” for “2B)”, “1C)” for “2C)”
as §2

O=S(=O)(O)c1cc(O)c2c(S(=O)(=O)O)cc(S(=O)(=O)O)cc2c1 [ζ-Stat, 8-hydroxynaphthalene-1,3,6-trisulfonic acid]
proliferation of ES-2 cells (ES-2 cells): decreased | expression of RhoA at the genomic level (RhoA): knocks down the expression of RhoA | expression of RhoA at the protein level (RhoA): knocks down the expression of RhoA | mouse body weight ([1]; athymic female mice treated with ζ-Stat): maintained | toxic effect ([1]; mice, 20 mg/kg, after 30 days of treatment): did not have a toxic effect | wound healing (CCOC cells): decreased wound healing | expression of PKC-ζ (PKC-ζ): knocks down the expression of PKC-ζ | expression of PKC-ι (PKC-ι): not the expression of PKC-ι | tumor growth (TOV21G xenographs): decreased; also recorded: reduced | proliferation of TOV21G cells (TOV21G cells): decreased
